According to patent publication US9278982B2, “Targeting human thymidylate kinase induces DNA repair toxicity in malignant tumor cells” (NATIONAL YANG-MING UNIVERSITY, priority 2010, dated 2016):
“Also recorded” adds a separate entry of the source.

Tests used:
[1] = target: T1, TMPK (Homo sapiens, UniProt P23919); assay: Luciferase-coupled TMPK assay; type: biochemical; parameters: GST (N, cleaved yes); made in house; host or cells: E. coli JM109 (pGEX-2T-hTMPK); conditions: purified hTMPK protein (0.5 μg), 10 min preincubation
T1 sequence (P23919 1-212): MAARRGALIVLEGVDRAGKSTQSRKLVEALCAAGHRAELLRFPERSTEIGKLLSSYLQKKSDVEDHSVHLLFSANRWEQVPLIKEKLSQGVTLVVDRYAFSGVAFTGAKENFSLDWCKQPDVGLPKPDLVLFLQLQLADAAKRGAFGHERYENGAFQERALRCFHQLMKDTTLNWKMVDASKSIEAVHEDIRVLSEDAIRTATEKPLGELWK
Procedure: FIG. 12. Identification of a novel hTMPK inhibitor. (A) A screen of TMPK inhibitor by luciferase-coupled assay. (B) The chemical structures of YMU1 (compound 21) and related molecules. (C) Effect of YMU1 and derivative compounds on hTMPK inhibition using purified hTMPK protein (0.5 μg) with 10 min preincubation prior to reaction using luciferase-coupled TMPK analysis. (D) Effect of YMU1 on activity of purified TMPK (0.5 μg) and GST-hTK1 protein (5 μg) with 10 min preincubation prior to reaction. Data represent mean±s.d. (n=4) (E) Molecular models of the TMPK-YMU1 complex. Left panel: TMPK/ATP/Mg+2; right panel: TMPK/YMU1. The TMPK is represented in surface electrostatic potential (upper) and structural ribbon (lower). ATP and YMU1 are shown in green and blue stick, respectively, with colored atom (O, red; S, yellow; P, orange). TMP is shown in white backbone and Mg+2 in purple. Arrow indicates the position of Asp15.
Based on the functional requirement of TMPK in DNA repair specifically in tumor cells with elevated level of R2 expression, we searched for inhibitors of hTMPK that might be useful in selectively sensitizing tumor cells to doxorubicin. […] The synthetic procedure and structural elucidation of YMU1 (compound 21) are described in the Methods of the Invention section of the application.
The TMPK reaction was started by adding purified hTMPK in 50 μl of TMPK assay buffer (100 mM Tris-HCl, pH 7.5, 100 mM KCl, 10 mM MgCl2, 50 μM ATP and 100 μM dTMP) in 96 wells plate at 25° C. for 10 min and terminated by adding 200 μl of DTNB (100 μM), followed by transferring 10 μl of reaction solution to a white 96-wellplate containing 90 μl of luciferase assay buffer (50 mM Glycine, 0.5 mM EDTA and 5 mM EDTA, pH 7.0, 0.1 μg of luciferase, 50 μM luciferin and 0.1% BSA). The luminescence was measured with a luminescence counter (Packard).

[2] = test system: panel of cell lines; assay: Doxorubicin sensitization, MTS viability assay, summary over the panel of cell lines; type: cell-based, human; conditions: all these cell lines; 72 h pre-treatment
Procedure: (§1) FIG. 16. In vitro and in vivo effect of YMU1 on doxorubicin sensitization. (A) A panel of cell lines were pre-treated with vehicle, YMU1 (compound 21), D6 (ethyl 4-(2-chloroacetyl)piperazine-1-carboxylate) or D7 (compound 28) for 3 days and were exposed to different concentration of doxorubicin for 4 h. […] The enhancement (fold) of doxorubicin sensitivity in each cell line was calculated. Data represent mean±s.d., n=3; each experiment was quadruplex. Inset indicates the IC50 value of doxorubicin in various cell lines. […] Following overnight culture, cells were refreshed with growth medium. After 14 days of culture, colonies were fixed, stained by crystal violet and counted. (C) HCT-116 p53^−/− cells were subcutaneously implanted in the right flank of Balb/c nude mice (each experimental group n=8). Arrow indicated the time of stopping drug treatment. The tumor volume was estimated as described in Methods of the Invention section. (D) After 2 weeks recovered from treatment, mice were sacrificed for tumor weight measurement. Data represent mean±s.e.m; **, P<0.01 by a two-tailed Student's t-test. (E) Ki 67 proliferation marker staining of tumor shown in left panel. Scale bar, 50 μm. (F) Model of doxorubicin sensitization by YMU1 in malignant cancer cells. Both R2/R1 and TMPK are recruited to the site of doxorubicin-induced double-strand breaks, where dATP, dGTP, dCTP, dTTP and dUTP are site-specific synthesized. Inhibition of TMPK decreases dTTP formation at DNA damage sites, causing futile DNA repair due to dUTP incorporation.
(§2) Next, various human cancer cell lines were treated with YMU1, D6 or D7 for 72 h to test the potential of TMPK inhibitor in doxorubicin sensitization. After exposure to different concentration of doxorubicin for 4 h, cells were refreshed for viability analysis after 2 days and the IC50 value for doxorubicin in each of the cell lines was determined (FIG. 16A and Table 2).
The ability of YMU1 to sensitize non-tumorigenic mammary cycling H184B5F5/M10, MCF10A, primary human mammary epithelial (HMEC) and primary renal epithelial (HREC) cells and IMR-90 embryonic lung fibroblasts to doxorubicin was much weaker.
(§3) Cells plated into a 96-well plate (10^3 cells/well) were treated and cell viability was measured by MTS assay (Promega) (Cory et al., 1991). An annexin V-fluorescein isothiocyanate (FITC) apoptosis kit (Calbiochem) was used to detect apoptosis. The cell cycle analysis was performed by staining cells with propidium iodide (PI) for fluorescence-activated cell sorter (FACS) analysis with CellQuest software.

[3] = target: T1, TMPK; assay: In vitro TMPK inhibitory activity of TMPK inhibitor derivatives (inhibition yield); type: biochemical; parameters: GST (N, cleaved yes); made in house; host or cells: E. coli JM109 (pGEX-2T-hTMPK), inferred; conditions: n=3 or 6, read-out: inhibition yield, normalized to compound 21 (YMU1) = 100%
Source text: Chemical structures of the different TMPK inhibitor derivatives tested for in vitro TMPK inhibitory activity and in vivo doxorubicin sensitization activity (in MDA-MB231 cells) are depicted below.

[4] = test system: MDA-MB231; assay: Doxorubicin sensitization, MTS viability assay; type: cell-based, human; conditions: MDA-MB231 cell treatment, compound at 2 μM
Procedure: as §1, §2, §3

SMILES	inhibition at 2 µM [3]	other results
CCOC(=O)N1CCN(C(=O)CI)CC1 [D6, ethyl 4-(2-iodoacetyl)piperazine-1-carboxylate]		inhibition against hTMPK [1]: Neither D6 (as the piperazine fragment of YMU1) nor D7 (as the O-alkylation isomer of YMU1) showed any inhibition; also recorded: do not inhibit TMPK; doxorubicin sensitization effect [2]: had no doxorubicin sensitization effect
Cc1ccc2c(=O)[nH]sc2n1 [compound 3, 6-Methylisothiazolo[5,4-b]pyridin-3(2H)-one]	76.5%	
Cc1cc(C)c2c(=O)[nH]sc2n1 [compound 4, 4,6-Dimethylisothiazolo[5,4-b]pyridin-3(2H)-one]	28%	inhibition against hTMPK ([1]; listed as D3): weak inhibitory activity; also recorded: do not inhibit TMPK
CCOC(=O)N1CCN(C(=O)N2Cc3ccccc3C2=O)CC1 [compound 5, Ethyl 4-(1-oxoisoindoline-2-carbonyl)piperazine-1-carboxylate]	92.9%	
COC(=O)Cn1sc2ccccc2c1=O [compound 6, Methyl 2-(3-oxobenzo[d]isothiazol-2(3H)-yl)acetate]	96%	
COC(=O)Cn1sc2nc(C)cc(C)c2c1=O [compound 7, Methyl 2-(4,6-dimethyl-3-oxoisothiazolo[5,4-b]pyridin-2(3H)-yl)acetate]	98.3%	melting point: 89 to 91 °C
O=C(O)Cn1sc2ccccc2c1=O [compound 8, 2-(3-oxobenzo[d]isothiazol-2(3H)-yl)acetic acid]	29.1%	
Cc1cc(C)c2c(=O)n(CC(=O)O)sc2n1 [compound 9, 2-(4,6-Dimethyl-3-oxoisothiazolo[5,4-b]pyridin-2(3H)-yl)acetic acid]	47%	
O=C(Cn1sc2ccccc2c1=O)N1CCNCC1 [compound 10, 2-(2-Oxo-2-(piperazin-1-yl)ethyl)benzo[d]isothiazol-3(2H)-one]	96.8%	inhibition against hTMPK [1]: considerable inhibitory function; enhancement on doxorubicin sensitization [4]: had no effect
CCOC(=O)N1CCN(C(=O)Cn2sc3ccccc3c2=O)CC1 [compound 11, Ethyl 4-(2-(3-oxobenzo[d]isothiazol-2(3H)-yl)acetyl)piperazine-1-carboxylate]		inhibition [3]: 100%
CC(C)(C)OC(=O)N1CCN(C(=O)Cn2sc3ccccc3c2=O)CC1 [compound 12, Tert-butyl 4-(2-(3-oxobenzo[d]isothiazol-2(3H)-yl)acetyl)piperazine-1-carboxylate]	124%	enhancement on doxorubicin sensitization [4]: 30 fold
O=C(Cn1sc2ccccc2c1=O)N1CCN(C(=O)OCc2ccccc2)CC1 [compound 13, Benzyl 4-(2-(3-oxobenzo[d]isothiazol-2(3H)-yl)acetyl)piperazine-1-carboxylate]	127%	
O=C(Cn1sc2ccccc2c1=O)N1CCN(C(=O)Oc2ccc([N+](=O)[O-])cc2)CC1 [compound 14, 4-Nitrophenyl 4-(2-(3-oxobenzo[d]isothiazol-2(3H)-yl)acetyl)piperazine-1-carboxylate]	129%	
C=CCN1CCN(C(=O)Cn2sc3ccccc3c2=O)CC1 [compound 15, 2-(2-(4-Allylpiperazin-1-yl)-2-oxoethyl)benzo[d]isothiazol-3(2H)-one]	102%	
O=C(CN1C(=O)c2ccccc2S1(=O)=O)N1CCNCC1 [compound 16, 2-(2-Oxo-2-(piperazin-1-yl)ethyl)benzo[d]isothiazol-3(2H)-one 1,1-dioxide]	11.8%	
CC(C)(C)OC(=O)N1CCN(C(=O)CN2C(=O)c3ccccc3S2(=O)=O)CC1 [compound 17, Tert-butyl 4-(2-(3-oxobenzo[d]isothiazol-2(3H)-yl)acetyl)piperazine-1-carboxylate 1,1-dioxide]	10.1%	
CC(C)(C)OC(=O)N1CCN(C(=O)CN2C(=O)c3ccccc3C2=O)CC1 [compound 18, Tert-Butyl 4-[2-(1,3-dioxo-1,3-dihydro-isoindol-2-yl)-acetyl]-piperazine-1-carboxylate]	51.4%	
Cc1cc(C)c2c(=O)n(CC(=O)N3CCOCC3)sc2n1 [compound 19, 4,6-Dimethyl-2-(2-morpholino-2-oxoethyl)isothiazolo[5,4-b]pyridin-3(2H)-one]	100%	enhancement on doxorubicin sensitization [4]: had no effect
Cc1cc(C)c2c(=O)n(CC(=O)N3CCNCC3)sc2n1 [compound 20, 4,6-Dimethyl-2-(2-oxo-2-(piperazin-1-yl)ethyl)isothiazolo[5,4-b]pyridin-3(2H)-one]	99.5%	
Cc1cc(C)c2c(=O)n(CC(=O)N3CCN(C(=O)OC(C)(C)C)CC3)sc2n1 [compound 22, Tert-butyl 4-(2-(4,6-dimethyl-3-oxoisothiazolo[5,4-b]pyridin-2(3H)-yl)acetyl) piperazine-1-carboxylate]	112%	
CCOC(=O)N1CCN(C(=O)CCCn2sc3ccccc3c2=O)CC1 [compound 23, Ethyl 4-(4-(3-oxobenzo[d]isothiazol-2(3H)-yl)butanoyl)piperazine-1-carboxylate]	0%	
O=C(Cn1sc2ccccc2c1=O)N1CCN(C(=O)Cn2sc3ccccc3c2=O)CC1 [compound 24, 2,2′-(2,2′-(piperazine-1,4-diyl)bis(2-oxoethane-2,1-diyl))dibenzo[d]isothiazol-3(2H)-one]	118%	
COC(=O)COc1nsc2nc(C)cc(C)c12 [compound 25, Methyl 2-(4,6-dimethylisothiazolo[5,4-b]pyridin-3-yloxy)acetate]	7.8%	
Cc1cc(C)c2c(OCC(=O)O)nsc2n1 [compound 26, 2-(4,6-Dimethylisothiazolo[5,4-b]pyridin-3-yloxy)acetic acid]	16.4%	
Cc1cc(C)c2c(OCC(=O)N3CCOCC3)nsc2n1 [compound 27, 2-(4,6-Dimethylisothiazolo[5,4-b]pyridin-3-yloxy)-1-morpholinoethanone]	16%	melting point: 153 to 155 °C
